Measurements as given in paper PMC7139822, “Flumazenil-Insensitive Benzodiazepine Effects in Recombinant αβ and Neuronal GABAA Receptors” (Brain Sciences, 2020).

Molecular target: T1, α1β2 receptor (Rattus norvegicus, UniProt P62813+P63138)
T1 construct: gene Gabra1; full-length rat subunit cDNAs by RT-PCR from brain mRNA; α in pcDNA3.1(+), β in pIRES2-EGFP (EGFP separate via IRES); HEK293; α:β cDNA 1:1, said to favor 2α:3β pentamer
Assay: whole-cell patch clamp, HEK293
Format: cell-based
Details: 200 µM; positive allosteric modulator, non-classical site; co-applied with 0.1 μmol/L GABA; −60 mV; pH 7.4
Excerpt: whole-cell patch clamp, HEK293 on α1β2 receptor

T1 sequence (P62813 28-455): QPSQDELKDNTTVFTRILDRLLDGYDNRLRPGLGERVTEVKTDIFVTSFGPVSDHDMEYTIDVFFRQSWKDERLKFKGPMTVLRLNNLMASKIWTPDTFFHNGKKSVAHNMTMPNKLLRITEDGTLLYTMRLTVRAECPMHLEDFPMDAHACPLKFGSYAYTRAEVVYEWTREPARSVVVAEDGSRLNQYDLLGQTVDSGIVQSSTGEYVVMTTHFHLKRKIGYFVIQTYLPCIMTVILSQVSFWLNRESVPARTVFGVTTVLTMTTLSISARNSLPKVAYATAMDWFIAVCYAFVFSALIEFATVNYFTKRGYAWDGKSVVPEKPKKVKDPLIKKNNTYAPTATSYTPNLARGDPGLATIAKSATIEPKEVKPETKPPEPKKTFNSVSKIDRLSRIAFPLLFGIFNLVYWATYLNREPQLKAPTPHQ
T1 sequence (P63138 26-474): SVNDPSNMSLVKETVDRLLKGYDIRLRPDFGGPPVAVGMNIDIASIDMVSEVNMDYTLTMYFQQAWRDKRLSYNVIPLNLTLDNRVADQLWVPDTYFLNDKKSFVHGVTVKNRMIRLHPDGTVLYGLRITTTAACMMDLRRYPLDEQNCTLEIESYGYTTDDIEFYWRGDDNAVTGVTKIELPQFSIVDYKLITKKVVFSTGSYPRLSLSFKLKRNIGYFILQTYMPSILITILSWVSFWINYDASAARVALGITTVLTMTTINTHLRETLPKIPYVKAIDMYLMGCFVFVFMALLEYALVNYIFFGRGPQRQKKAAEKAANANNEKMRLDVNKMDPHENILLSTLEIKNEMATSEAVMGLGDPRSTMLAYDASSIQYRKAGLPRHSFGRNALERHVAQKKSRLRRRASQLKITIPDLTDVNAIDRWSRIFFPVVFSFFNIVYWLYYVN

Q: `Cc1ncc2n1-c1ccc(Cl)cc1C(c1ccccc1F)=NC2` [Midazolam] was tested. Which “Potentiation of GABA Currents (%) / (Midazolam)” value did it give?
A: 171.8 ± 13.8%
